According to patent publication US8697098B2, “Polymer conjugated protein micelles” (South Dakota State University, priority 2011, dated 2014):
In brackets after ≈: the same amount, converted by molar mass. Where two headings read alike, the source gives them in different places.

What was measured:
[1] = test system: MCF-7 human breast cancer cells; assay: In vitro cytotoxicity, MTT assay; assay type: cell-based; conditions: MCF7, 120 h, doxorubicin 15.62 nM to 1000 nM, MTT on day 5
Protocol: […]. On day 5 cytotoxicity analysis was performed using an MTT assay. Data points represents average±SE (n=4). […].
The cells were washed twice with ice cold phosphate buffer and replaced with fresh media. Media was replaced for every 48 hours. At day 5, cytotoxicity analysis was performed using the MTT assay.

[2] = cited from earlier work
[3] = test system: JC mouse breast cancer cells; assay: In vivo biodistribution in allograft breast tumor mouse model; conditions: i.v.; 3 hours after administration
Protocol: The tumor model was developed by subcutaneous injection of JC mouse breast cancer cells. […] Animals were sacrificed 3 hours after treatment administration. Tumor and organs were collected. Doxorubicin concentration in tumors and organs were determined using a fluorescence based isocratic HPLC method. […] Female nude mice (Charles River Laboratories, Wilmington, Mass.) were used in the study. JC mouse breast cancer cells (1×10^7 cells) were suspended in PBS and injected subcutaneously. […] After 3 hours, the mice were sacrificed and organs (liver, heart, lungs, spleen, brain and tumor) were collected and homogenized in 2 mL deionized water using a tissue homogenizer. After addition of 100 ng of daunorubicin (internal standard), tissue homogenates were lyophilized.
Dry tissues were weighed and extracted with 5 mL of methanol/chloroform mixture (65:35) using a shaker for 5 hours in the dark at room temperature. The extract was centrifuged at 13,000 rpm for 10 minutes at 4° C. The supernatant was evaporated under nitrogen gas and reconstituted in methanol/acetonitrile (50:50).

[4] = test system: NCl/ADR-RES drug resistant human ovarian cancer cells; assay: In vitro cytotoxicity, MTT assay; assay type: cell-based
Protocol: On the fifth day cytotoxicity analysis was performed using an MTT assay. Data points represent average±SE (n=4).
On day 5 cytotoxicity analysis was measured using an MTT assay. Data points represent average±SE (n=4).
The cells were washed twice with ice cold phosphate buffer and replaced with fresh media. […] On day 5 cytotoxicity analysis was performed using an MTT assay.
On the fifth day cytotoxicity analysis was performed using the MTT assay.

[5] = cited from earlier work; remark: listed apart in the source
[6] = comparison surfactant / block copolymers; cited from earlier work

## COc1cccc2c1C(=O)c1c(O)c3c(c(O)c1C2=O)C[C@@](O)(C(=O)CO)C[C@@H]3O[C@H]1C[C@H](N)[C@H](O)[C@H](C)O1 [Doxorubicin]
[1]
  IC50: 148 nM
[2]; free compound
  solubility in water: practically insoluble in water
[2]; free drug
  solubility in water: 15 ng/mL (≈ 0.0276 µM)
[3]
  doxorubicin accumulation in tumor: no drug accumulation
[4]; 120 h, doxorubicin 31.25 nM to 1000 nM, MTT on day 5, read-out: IC50
  IC50: 126 nM

## CCN(CC)c1ccc2nc3c4ccccc4c(=O)cc-3oc2c1 [Nile red]
[5]; Table 3, cargo compound itself
  Log P: 5
[2]; free compound
  solubility in water: practically insoluble in water

## CCCCCCCCCCCCOS(=O)(=O)[O-].[Na+] [sodium dodecyl sulfate]
[6]
  critical micellar concentration (CMC): about 2.304 g/L

## COc1cc(/C=C/C(=O)/C=C(O)/C=C/c2ccc(O)c(OC)c2)ccc1O [Curcumin]
[5]; Table 3, cargo compound itself
  Log P: 2.5
[5]
  Log P: 2.5
[2]; free compound
  solubility in water: practically insoluble in water
[2]; free drug
  solubility in water: 11 ng/mL (≈ 0.0299 µM)
[4]; 96 h
  IC50: 104 nM
